According to patent US20240408216A1, “PROTEIN INHIBITOR OR DEGRADING AGENT, PHARMACEUTICAL COMPOSITION CONTAINING SAME AND PHARMACEUTICAL USE” (JING MEDICINE TECHNOLOGY (SHANGHAI) LTD., priority 2021, published 2024):
Like-named read-outs stand apart in the source and are kept apart here.

Experiments:
LT = experiment: Cell proliferation IC50 assay (Cell Titer GLO), LT cells; format: cell-based; conditions: Mus musculus; Table 7; LT cells (BaF3 with EGFR mutant), 72 h
Protocol: (§1) IC50 of compounds in the present invention was determined by Cell Titer GLO reagent from Promega. The procedures are as follows:
(§2) Tumor cells were cultured in specified medium in an incubator at 37° C. and 5% CO2. The cells were passaged periodically. Cells at the logarithmic growth phase were collected for plating at a density of 2000-4000 cells/well. The next day, the compounds of the present invention were serially diluted and added to the cells, with DMSO being the negative control and the culture media without cells being the blank control. The plate was incubated in the incubator for 72 h. The cell viability assay was performed by adding the detection reagents to the cell culture media according to Cell Titer GLO reagent instructions and detecting luminescent signals on an EnVision microplate reader (PerkinElmer).
(§3) Inhibition of cell growth by the compounds of the present invention was plotted by Prism Graphpad software for statistically calculating the IC50 of the compound of the present invention.

[1] = system: BaF3 (EGFR Del19/T790M/C797S); experiment: Cell proliferation IC50 assay (Cell Titer GLO), BaF3 DTC cells; format: cell-based; conditions: Mus musculus, Ba/F3 EGFR-Del19/T790M/C797S
Procedure, shortened: (§4)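 Each cell line, plated at 2000-4000 cells/well, received serially diluted compound for 72 h (37° C, 5% CO2) before luminescent ATP-based viability detection. IC50 values were derived from growth inhibition relative to DMSO-treated and cell-free blank wells.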

A431 = experiment: Cell proliferation IC50 assay (Cell Titer GLO), A431 cells; format: cell-based; conditions: Homo sapiens, A-431, A431, 72 h, read-out: A431 IC50
Procedure, shortened: as §4

BaF3 (EGFR WT) = experiment: Cell proliferation IC50 assay (Cell Titer GLO), BaF3 WT cells; format: cell-based; conditions: Mus musculus, Ba/F3 EGFR, 72 h
Procedure, shortened: as §4

BaF3 (EGFR L858R/C797S) = BaF3 (EGFR L858R/C797S) (Homo sapiens, UniProt P00533, C797S/L858R, cells depend on it); experiment: Cell proliferation IC50 assay (Cell Titer GLO), BaF3 LC cells; format: cell-based, mouse; conditions: Table 7, 72 h
Protocol: as §1, §2, §3

BaF3 (EGFR Del19) = BaF3 (EGFR Del19) (Homo sapiens, UniProt P00533, cells depend on it, form not given); experiment: Cell proliferation IC50 assay (Cell Titer GLO), BaF3 D cells; format: cell-based, mouse; conditions: Table 7, 72 h
Protocol: as §1, §2, §3

DT = experiment: Cell proliferation IC50 assay (Cell Titer GLO), DT cells; format: cell-based; conditions: Mus musculus; Table 7; DT cells (BaF3 with EGFR mutant), 72 h
Protocol: as §1, §2, §3

BaF3 (EGFR L858R) = BaF3 (EGFR L858R) (Homo sapiens, UniProt P00533, L858R, cells depend on it); experiment: Cell proliferation IC50 assay (Cell Titer GLO), BaF3 L cells; format: cell-based, mouse; conditions: Table 7, 72 h
Protocol: as §1, §2, §3

BaF3 (EGFR Del19/C797S) = molecular target: T1, BaF3 (EGFR Del19/C797S) (Homo sapiens, UniProt P00533, C797S, cells depend on it, form not given); experiment: Cell proliferation IC50 assay (Cell Titer GLO), BaF3 DC cells; format: cell-based, mouse; conditions: Table 7, 72 h
T1 construct: BaF3 (EGFR Del19/C797S)|DC|RPMI1640 + 10% FBS
Procedure, shortened: as §4

[2] = system: BaF3 (EGFR L858R/T790M/C797S); experiment: Cell proliferation IC50 assay (Cell Titer GLO), BaF3 LTC cells; format: cell-based; conditions: Mus musculus, Ba/F3 EGFR
Procedure, shortened: as §4

human EGFR-DTC = experiment: EGFR protein abundance assay (Western blotting), EGFR-DTC; format: cell-based; conditions: Ba/F3 cells expressing human EGFR-DTC, 24 h, Western blot
Protocol: (§5) Mouse Ba/F3 cells stably expressing human EGFR-DTC, EGFR-LTC, or EGFR-DC were transferred to Petri dishes with RPMI-1640 medium (Gibco, Product No. 11875093) containing 10% fetal bovine serum (FBS, Biological Industries, Product No. 04-001-1A) and 0.1% penicillin/streptomycin (P/S) and incubated in an aseptic incubator at 37° C., 95% relative humidity, and 5% CO2. Cells at the logarithmic growth phase were taken and seeded at a density of 50000 cells/well in 12-well plates (Corning, Product No. 3513) containing 1 mL of medium per well. After 24 h, the compounds disclosed herein with different concentrations were added to the wells at a final DMSO concentration of 0.1%. After 24 h, cells were lysed in SDS lysis buffer (1.45 g of SDS, 0.2 g of Tris base, 6 mL of glycerol, 20 mg of bromophenol blue, 310 mg DTT; brought to 40 mL with d2H2O), and the EGFR levels were detected and analyzed by Western Blotting (immunoblotting) using standard molecular biological techniques. Cell lysates were boiled at 95° C. for 8 min, mixed and centrifuged. The total cell proteins in the lysates were subjected to SDS-PAGE (GenScript, Product No. M00654), transferred to NC membranes (GE, Product No. 1060002) by blotting, incubated in a blocking buffer (TAKARA, Product No. T7131A) at room temperature for 60 min, and co-incubated overnight at 4° C. with the following primary antibodies: anti-EGFR (#4267S, 1:1000), anti-phoso-EGFR (#3777S, 1:1000), anti-GAPDH (#5174S, 1:10000), anti-Actin (#5125 S, 1:10000) (all purchased from Cell Signaling Technology). The samples were washed three times with TBST at room temperature, each for 10 min, and then incubated for 60 minutes in a blocking buffer containing a secondary antibody (#7074S, 1:10000, purchased from Cell Signaling Technology) at room temperature. The samples were washed three times with TBST at room temperature, each for 10 min. Chemiluminescent substrates were added, and an Azure c300 system was used for imaging.

human EGFR-LTC = molecular target: T2, human EGFR-LTC (Homo sapiens, UniProt P00533, C797S/L858R/T790M); experiment: EGFR protein abundance assay (Western blotting), EGFR-LTC; format: cell-based; conditions: 24 h, Western blot; for Dmax: BaF3, Ba/F3 cells expressing human EGFR-LTC
T2 construct: expressed in transfected cells
Protocol: as §5

BaF3 patent = experiment: Cell proliferation IC50 assay (Cell Titer GLO), BaF3 parental cells; format: cell-based; conditions: Mus musculus, Table 5, 10 ng/ml mIL3, 72 h
Protocol: as §1, §2, §3

human EGFR-DC = experiment: EGFR protein abundance assay (Western blotting), EGFR-DC; format: cell-based; conditions: Ba/F3 cells expressing human EGFR-DC, 24 h, Western blot
Protocol: as §5

[3] = Ba/F3 cells expressing human EGFR-LTC

Chain of BaF3 (EGFR L858R/C797S) (P00533 whole entry C797S/L858R): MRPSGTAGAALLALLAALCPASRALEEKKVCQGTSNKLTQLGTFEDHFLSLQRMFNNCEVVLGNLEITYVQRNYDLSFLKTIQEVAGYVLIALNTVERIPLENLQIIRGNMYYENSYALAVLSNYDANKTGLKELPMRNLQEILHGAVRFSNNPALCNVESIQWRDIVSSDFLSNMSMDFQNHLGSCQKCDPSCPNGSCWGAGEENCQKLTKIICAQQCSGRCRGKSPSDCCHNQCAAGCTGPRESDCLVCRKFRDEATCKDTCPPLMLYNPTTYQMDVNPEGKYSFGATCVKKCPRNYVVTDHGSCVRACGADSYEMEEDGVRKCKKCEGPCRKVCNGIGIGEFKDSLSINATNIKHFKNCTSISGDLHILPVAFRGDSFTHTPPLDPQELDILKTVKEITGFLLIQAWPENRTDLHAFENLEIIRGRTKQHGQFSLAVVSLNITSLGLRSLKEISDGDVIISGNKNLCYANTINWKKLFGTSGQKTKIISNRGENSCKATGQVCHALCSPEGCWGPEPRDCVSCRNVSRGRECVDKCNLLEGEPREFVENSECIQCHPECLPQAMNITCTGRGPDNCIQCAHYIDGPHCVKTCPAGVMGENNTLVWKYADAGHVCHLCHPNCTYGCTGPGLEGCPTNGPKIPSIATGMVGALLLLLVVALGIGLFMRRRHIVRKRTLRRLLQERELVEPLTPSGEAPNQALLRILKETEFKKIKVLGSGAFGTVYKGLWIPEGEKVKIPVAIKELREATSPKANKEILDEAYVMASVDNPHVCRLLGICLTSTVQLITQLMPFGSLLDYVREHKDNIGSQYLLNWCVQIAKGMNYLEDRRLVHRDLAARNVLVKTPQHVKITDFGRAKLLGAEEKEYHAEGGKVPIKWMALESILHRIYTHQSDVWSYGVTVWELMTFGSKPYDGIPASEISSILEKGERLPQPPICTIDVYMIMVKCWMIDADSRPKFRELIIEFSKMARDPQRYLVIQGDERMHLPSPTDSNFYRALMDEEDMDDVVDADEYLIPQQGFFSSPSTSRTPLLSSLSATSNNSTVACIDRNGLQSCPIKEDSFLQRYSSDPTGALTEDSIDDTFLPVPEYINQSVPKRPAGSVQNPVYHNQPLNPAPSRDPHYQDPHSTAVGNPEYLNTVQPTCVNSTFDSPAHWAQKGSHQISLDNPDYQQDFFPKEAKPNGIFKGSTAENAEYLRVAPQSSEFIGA
T2 sequence (P00533 25-1210 T790M/C797S/L858R): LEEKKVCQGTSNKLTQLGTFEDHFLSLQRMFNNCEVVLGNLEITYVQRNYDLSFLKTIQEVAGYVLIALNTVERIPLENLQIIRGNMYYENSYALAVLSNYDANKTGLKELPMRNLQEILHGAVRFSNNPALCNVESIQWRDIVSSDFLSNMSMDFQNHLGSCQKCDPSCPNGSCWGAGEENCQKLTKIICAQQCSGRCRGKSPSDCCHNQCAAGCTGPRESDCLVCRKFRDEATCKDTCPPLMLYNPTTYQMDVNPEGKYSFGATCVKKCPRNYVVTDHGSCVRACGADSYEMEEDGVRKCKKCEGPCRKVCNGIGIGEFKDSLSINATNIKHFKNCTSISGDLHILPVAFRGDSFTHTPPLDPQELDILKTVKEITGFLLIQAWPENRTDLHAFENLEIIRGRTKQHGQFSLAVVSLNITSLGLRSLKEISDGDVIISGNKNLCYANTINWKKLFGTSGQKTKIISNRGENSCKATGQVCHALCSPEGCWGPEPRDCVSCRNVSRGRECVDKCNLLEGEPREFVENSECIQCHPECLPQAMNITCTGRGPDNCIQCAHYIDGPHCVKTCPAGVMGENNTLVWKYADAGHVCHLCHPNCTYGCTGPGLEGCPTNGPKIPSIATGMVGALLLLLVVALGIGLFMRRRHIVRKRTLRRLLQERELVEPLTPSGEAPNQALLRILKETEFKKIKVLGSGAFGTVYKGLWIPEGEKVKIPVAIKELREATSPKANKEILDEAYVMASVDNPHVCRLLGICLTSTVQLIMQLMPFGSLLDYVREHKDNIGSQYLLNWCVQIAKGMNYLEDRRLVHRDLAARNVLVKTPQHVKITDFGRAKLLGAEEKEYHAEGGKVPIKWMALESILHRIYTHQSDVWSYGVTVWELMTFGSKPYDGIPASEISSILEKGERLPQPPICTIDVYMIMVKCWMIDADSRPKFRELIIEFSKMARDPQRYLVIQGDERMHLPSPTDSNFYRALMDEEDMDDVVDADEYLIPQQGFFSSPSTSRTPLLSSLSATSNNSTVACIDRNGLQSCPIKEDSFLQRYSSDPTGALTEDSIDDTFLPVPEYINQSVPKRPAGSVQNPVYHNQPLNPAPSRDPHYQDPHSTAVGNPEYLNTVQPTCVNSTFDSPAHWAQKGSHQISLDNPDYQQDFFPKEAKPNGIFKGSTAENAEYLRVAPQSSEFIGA
Chain of BaF3 (EGFR L858R) (P00533 whole entry L858R): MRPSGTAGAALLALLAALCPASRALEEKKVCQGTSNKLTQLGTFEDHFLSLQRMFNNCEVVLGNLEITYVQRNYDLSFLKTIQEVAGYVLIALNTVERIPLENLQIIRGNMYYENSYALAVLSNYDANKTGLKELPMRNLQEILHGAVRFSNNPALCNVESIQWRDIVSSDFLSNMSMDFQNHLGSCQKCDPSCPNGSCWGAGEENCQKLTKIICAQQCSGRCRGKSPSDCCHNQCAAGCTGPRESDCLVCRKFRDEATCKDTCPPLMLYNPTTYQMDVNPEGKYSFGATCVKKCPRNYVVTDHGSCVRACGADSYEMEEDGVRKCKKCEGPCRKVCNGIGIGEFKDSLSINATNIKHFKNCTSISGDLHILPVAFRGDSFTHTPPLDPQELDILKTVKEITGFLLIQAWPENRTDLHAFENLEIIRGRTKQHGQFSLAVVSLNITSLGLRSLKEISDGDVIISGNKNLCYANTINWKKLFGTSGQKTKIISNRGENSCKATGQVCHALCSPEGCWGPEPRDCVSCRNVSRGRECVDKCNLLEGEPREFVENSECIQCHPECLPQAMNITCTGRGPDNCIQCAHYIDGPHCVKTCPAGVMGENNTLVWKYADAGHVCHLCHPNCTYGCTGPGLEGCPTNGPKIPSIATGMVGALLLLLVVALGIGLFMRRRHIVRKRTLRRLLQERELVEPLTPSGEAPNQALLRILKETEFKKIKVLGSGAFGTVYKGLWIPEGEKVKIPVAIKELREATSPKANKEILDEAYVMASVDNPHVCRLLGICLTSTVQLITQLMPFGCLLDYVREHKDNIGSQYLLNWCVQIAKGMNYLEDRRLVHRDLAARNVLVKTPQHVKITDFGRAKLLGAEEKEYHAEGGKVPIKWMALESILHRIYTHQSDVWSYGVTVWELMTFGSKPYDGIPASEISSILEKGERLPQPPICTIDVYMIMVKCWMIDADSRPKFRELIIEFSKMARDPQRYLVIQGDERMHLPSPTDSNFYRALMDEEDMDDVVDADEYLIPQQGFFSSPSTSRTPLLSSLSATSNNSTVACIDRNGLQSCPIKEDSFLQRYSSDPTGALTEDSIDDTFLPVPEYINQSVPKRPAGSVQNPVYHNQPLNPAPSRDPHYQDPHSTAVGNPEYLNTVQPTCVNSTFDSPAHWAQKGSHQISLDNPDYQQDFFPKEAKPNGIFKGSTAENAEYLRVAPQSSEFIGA
Chain of BaF3 (EGFR Del19) (P00533 with tags, fused parts or gaps DEL746-750): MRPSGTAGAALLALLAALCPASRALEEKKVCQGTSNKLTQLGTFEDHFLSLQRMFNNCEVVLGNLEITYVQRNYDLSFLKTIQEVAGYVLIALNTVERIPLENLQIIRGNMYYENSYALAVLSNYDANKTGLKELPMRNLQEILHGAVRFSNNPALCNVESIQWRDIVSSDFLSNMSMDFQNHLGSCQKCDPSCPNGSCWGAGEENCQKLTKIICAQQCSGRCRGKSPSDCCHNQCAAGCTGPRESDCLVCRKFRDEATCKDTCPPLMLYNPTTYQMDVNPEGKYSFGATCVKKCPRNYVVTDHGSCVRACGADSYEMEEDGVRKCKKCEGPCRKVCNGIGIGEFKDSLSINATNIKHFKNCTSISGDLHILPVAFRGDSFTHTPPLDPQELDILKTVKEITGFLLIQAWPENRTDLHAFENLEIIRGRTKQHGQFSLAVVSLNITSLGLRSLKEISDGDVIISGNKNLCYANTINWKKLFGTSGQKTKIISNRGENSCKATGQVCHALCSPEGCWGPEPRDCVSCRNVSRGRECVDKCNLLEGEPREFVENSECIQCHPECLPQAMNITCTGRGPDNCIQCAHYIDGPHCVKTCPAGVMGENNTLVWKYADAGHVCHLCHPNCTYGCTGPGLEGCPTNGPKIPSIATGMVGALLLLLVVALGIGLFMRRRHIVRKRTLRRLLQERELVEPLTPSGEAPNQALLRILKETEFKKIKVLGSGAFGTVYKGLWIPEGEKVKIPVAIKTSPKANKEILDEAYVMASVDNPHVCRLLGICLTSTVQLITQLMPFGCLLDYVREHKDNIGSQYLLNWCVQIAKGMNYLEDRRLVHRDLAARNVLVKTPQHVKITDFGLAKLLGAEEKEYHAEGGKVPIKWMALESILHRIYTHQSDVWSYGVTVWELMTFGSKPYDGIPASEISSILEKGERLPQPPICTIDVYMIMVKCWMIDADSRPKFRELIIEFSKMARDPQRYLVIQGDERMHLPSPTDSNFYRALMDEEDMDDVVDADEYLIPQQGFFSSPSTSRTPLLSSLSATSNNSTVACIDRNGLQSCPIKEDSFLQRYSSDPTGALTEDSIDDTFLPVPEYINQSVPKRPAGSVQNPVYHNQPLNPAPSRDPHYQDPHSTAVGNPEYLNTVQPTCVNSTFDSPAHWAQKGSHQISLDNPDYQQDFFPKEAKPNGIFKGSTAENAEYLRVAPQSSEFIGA

## CCc1cc(Nc2ncc(Cl)c(Nc3ccccc3P(C)(C)=O)n2)c(OC)cc1N1CCC(N2Cc3ccc(Oc4cccc5c4CN(C4CCC(=O)NC4=O)C5=O)cc3C2)CC1 (stereo not shown) [Example E120]
LT
  IC50: 9.3 nM
[1]; Table 6, 72 h
  IC50: 14.7 nM
A431; Table 6
  IC50: ≥ 1560 nM
BaF3 (EGFR WT); Table 6, 10 ng/ml EGF
  IC50: ≥ 2160 nM
BaF3 (EGFR L858R/C797S)
  GI50: 33.9 nM
BaF3 (EGFR Del19)
  GI50: 1.8 nM
DT
  IC50: 7.8 nM
BaF3 (EGFR L858R)
  GI50: 16.6 nM
BaF3 (EGFR Del19/C797S)
  IC50: 3.2 nM
[2]; Table 6, 72 h
  IC50: 115 nM
Human EGFR-DTC
  DC50: 7.17 nM
  EGFR-DTC Dmax: 86%
Human EGFR-LTC; [3]
  DC50: 13.1 nM
Human EGFR-LTC
  Dmax: 85%

## COc1cc(N2CCC3(CCN(CCCC#Cc4cccc5c4CN(C4CCC(=O)NC4=O)C5=O)CC3)CC2)c(C)cc1Nc1ncc(Br)c(Nc2ccc3ccccc3c2P(C)(C)=O)n1 (stereo not shown) [Example E12]
LT
  IC50: 36 nM
[1]; Table 5, 72 h
  IC50: 18.3 nM
A431; Table 5
  IC50: > 4000 nM
BaF3 (EGFR WT); Table 5, 10 ng/ml EGF
  IC50: > 4000 nM
BaF3 (EGFR L858R/C797S)
  GI50: 106 nM
BaF3 (EGFR Del19)
  GI50: 7.8 nM
DT
  IC50: 24.8 nM
BaF3 (EGFR L858R)
  GI50: 37.8 nM
BaF3 (EGFR Del19/C797S)
  IC50: 16.2 nM
BaF3 patent
  IC50: > 4000 nM
[2]; Table 5, 72 h
  IC50: 111 nM

## COc1cc(N2CCC(N3CCN(CCC#Cc4cccc5c4CN(C4CCC(=O)NC4=O)C5=O)CC3)CC2)c(C2CC2)cc1Nc1ncc(Cl)c(Nc2ccccc2P(C)(C)=O)n1 (stereo not shown) [Example E13]
LT
  IC50: 16.5 nM
[1]; Table 5, 72 h
  IC50: 19.6 nM
A431; Table 5
  IC50: > 4000 nM
BaF3 (EGFR WT); Table 5, 10 ng/ml EGF
  IC50: > 4000 nM
BaF3 (EGFR L858R/C797S)
  GI50: 128 nM
BaF3 (EGFR Del19)
  GI50: 6.1 nM
DT
  IC50: 7.7 nM
BaF3 (EGFR L858R)
  GI50: 23.5 nM
BaF3 (EGFR Del19/C797S)
  IC50: 20.4 nM
BaF3 patent
  IC50: > 4000 nM
[2]; Table 5, 72 h
  IC50: 66.5 nM

## CCc1cc(Nc2ncc(-c3cnn(C)c3)c(Nc3ccccc3P(C)(C)=O)n2)c(OC)cc1N1CCC(N2CCN(CCOc3cccc4c3CN(C3CCC(=O)NC3=O)C4=O)CC2)CC1 (stereo not shown) [Example E158]
LT
  IC50: 69.1 nM
[1]; Table 6, 72 h
  IC50: 33 nM
A431; Table 6
  IC50: ≥ 1200 nM
BaF3 (EGFR WT); Table 6, 10 ng/ml EGF
  IC50: 730 nM
BaF3 (EGFR L858R/C797S)
  GI50: 1.3 nM
BaF3 (EGFR Del19)
  GI50: 0.2 nM
DT
  IC50: 15.3 nM
BaF3 (EGFR L858R)
  GI50: 0.6 nM
BaF3 (EGFR Del19/C797S)
  IC50: 0.1 nM
[2]; Table 6, 72 h
  IC50: 2760 nM

## CCc1cc(Nc2ncc(Cl)c(Nc3ccccc3P(C)(C)=O)n2)c(OC)cc1N1CCC(N2CCN(CCC#Cc3cccc4c3CN(C3CCC(=O)NC3=O)C4=O)CC2)CC1 (single isomer, unassigned) [Example E5]
Human EGFR-DTC
  DC50: 9.31 nM
  EGFR-DTC Dmax: 86%
Human EGFR-LTC; [3]
  DC50: < 1 nM
  EGFR-LTC Dmax: 93%

## CCc1cc(Nc2ncc(Cl)c(Nc3ccccc3P(C)(C)=O)n2)c(OC)cc1N1CCC2(CCN(CCCC#Cc3cccc4c3CN(C3CCC(=O)NC3=O)C4=O)CC2)CC1 (stereo not shown) [Example E15]
LT
  IC50: 20.7 nM
[1]; Table 5, 72 h
  IC50: 10.6 nM
A431; Table 5
  IC50: > 4000 nM
BaF3 (EGFR WT); Table 5, 10 ng/ml EGF
  IC50: > 4000 nM
BaF3 (EGFR L858R/C797S)
  GI50: 54.4 nM
BaF3 (EGFR Del19)
  GI50: 5.3 nM
DT
  IC50: 13.7 nM
BaF3 (EGFR L858R)
  GI50: 20.1 nM
BaF3 (EGFR Del19/C797S)
  IC50: 9.1 nM
BaF3 patent
  IC50: > 4000 nM
[2]; Table 5, 72 h
  IC50: 120 nM

## CCc1cc(Nc2ncc(Cl)c(Nc3ccccc3P(C)(C)=O)n2)c(OC)cc1N1CCC(N2CCN(CCOc3cccc4c3CN(C3CCC(=O)NC3=O)C4=O)CC2)CC1 (stereo not shown) [Example E95]
LT
  IC50: 3.5 nM
[1]; Table 6, 72 h
  IC50: 5.37 nM
A431; Table 6
  IC50: 1730 nM
BaF3 (EGFR WT); Table 6, 10 ng/ml EGF
  IC50: ≥ 1820 nM
BaF3 (EGFR L858R/C797S)
  GI50: 16.9 nM
BaF3 (EGFR Del19)
  GI50: 0.8 nM
Human EGFR-DC
  DC50: 10.1 nM
  EGFR-DC Dmax: 98%
DT
  IC50: 4 nM
BaF3 (EGFR L858R)
  GI50: 6.6 nM
BaF3 (EGFR Del19/C797S)
  IC50: 1.3 nM
[2]; Table 6, 72 h
  IC50: 48.4 nM
Human EGFR-DTC
  DC50: 3.02 nM
  EGFR-DTC Dmax: 91%
Human EGFR-LTC; [3]
  DC50: 2.13 nM
Human EGFR-LTC
  Dmax: 94%

## COc1cc(N2CCC(N3CCN(CCC#Cc4cccc5c4CN(C4CCC(=O)NC4=O)C5=O)CC3)CC2)ccc1Nc1ncc(Cl)c(Nc2ccccc2P(C)(C)=O)n1 (stereo not shown) [Example C-2, reference compound]
LT
  IC50: 20.9 nM
DT
  IC50: 13.3 nM
BaF3 patent
  IC50: 73.8 nM

## CCc1cc(Nc2ncc(Cl)c(Nc3ccccc3P(C)(C)=O)n2)c(OC)cc1N1CCC(N2CCN(CCCCCc3ccc4c(c3F)CN(C3CCC(=O)NC3=O)C4=O)CC2)CC1 (stereo not shown) [Example E20]
LT
  IC50: 10 nM
[1]; Table 5, 72 h
  IC50: 5.6 nM
A431; Table 5
  IC50: 1270 nM
BaF3 (EGFR WT); Table 5, 10 ng/ml EGF
  IC50: > 4000 nM
BaF3 (EGFR L858R/C797S)
  GI50: 19.4 nM
BaF3 (EGFR Del19)
  GI50: 1.7 nM
DT
  IC50: 7 nM
BaF3 (EGFR L858R)
  GI50: 5.2 nM
BaF3 (EGFR Del19/C797S)
  IC50: 2.7 nM
BaF3 patent
  IC50: > 4000 nM
[2]; Table 5, 72 h
  IC50: 54.3 nM
